Values quoted from earlier work in article PMC4791274, “Cerdulatinib, a novel dual SYK/JAK kinase inhibitor, has broad anti-tumor activity in both ABC and GCB types of diffuse large B cell lymphoma” (Oncotarget, 2015).

How the values were obtained:
[1] = system: relapsed/refractory (R/R) DLBCL patients; parameters: method as in PMID 19965662; conditions: 5 of 23 R/R DLBCL patients, phase I/II; cited from earlier work
[2] = system: DLBCL patients; conditions: available clinical data; cited from earlier work
[3] = system: R/R DLBCL; parameters: method as in PMID 26193343; conditions: phase II, 80 R/R DLBCL; cited from earlier work
[4] = system: DLBCL cells; conditions: cited from earlier work
[5] = system: LY4 cell line; parameters: method as in PMID 22025527; conditions: LY4, lacks surface immunoglobulins; cited from earlier work
[6] = system: LY3 cell line; parameters: method as in PMID 22025527; conditions: cited from earlier work
[7] = system: DHL2 cell line; parameters: method as in PMID 22025527; conditions: cited from earlier work
[8] = system: R/R patients (DLBCL); parameters: method as in PMID 17389337; conditions: number of patients, in 55 R/R patients; cited from earlier work

Structure (SMILES): COc1cc(Nc2ncc(F)c(Nc3ccc4c(n3)N(COP(=O)(O)O)C(=O)C(C)(C)O4)n2)cc(OC)c1OC [Fostamatinib]
- objective response [1]: 22%
- fraction of DLBCL patients in whom active [2]: ≤ 20%

Structure (SMILES): C=CC(=O)N1CCC[C@@H](n2nc(-c3ccc(Oc4ccccc4)cc3)c3c(N)ncnc32)C1 [ibrutinib]
- response rate of all DLBCL tumors [3]: 19%
- responsive tumors, ABC subtype [3]: 37%
- responsive tumors, GCB subtype [3]: 5%

Structure (SMILES): Cc1cccc(Nc2nc(N[C@@H]3CCCC[C@@H]3N)ncc2C(N)=O)c1 [PRT060318]
- impact on cell viability [4]: minimal impact on cell viability
- sensitivity to selective SYK inhibition [5]: resistant
- sensitivity to SYK selective inhibitor [6]: insensitive
- sensitivity to SYK selective inhibitor [7]: insensitive

Structure (SMILES): Cc1nc(Nc2ncc(C(=O)Nc3c(C)cccc3Cl)s2)cc(N2CCN(CCO)CC2)n1 [dasatinib]
- impact on cell viability [4]: minimal impact on cell viability

Structure (SMILES): Cn1cc(C2=C(c3cn(C4CCN(Cc5ccccn5)CC4)c4ccccc34)C(=O)NC2=O)c2ccccc21 [Enzastaurin]
- complete responses [8]: 3
- stable disease [8]: 1
- fraction of DLBCL patients in whom active [2]: ≤ 20%
